Structures are written as SMILES.

Our source for the melting point values is patent US7183415B2, “Quinoline compound” (Takeda Pharmaceutical Company Limited, priority 2001, dated 2007).

As for `Cc1ccc(-c2ccc(C(=O)Nc3ccc4cc(CN5CCCC5)cnc4c3C)cc2)cc1` [Example 20, 4′-methyl-N-[8-methyl-3-(1-pyrrolidinylmethyl)-7-quinolinyl][1,1′-biphenyl]-4-carboxamide], the melting point (usually the temperature of the solid-liquid transition) is 177 to 179 °C.

`COc1ccc(-c2ccc(C(=O)Nc3cc4ncc(CN5CCCC5)cc4cc3F)c(F)c2)cc1` [Example 59, 3-fluoro-N-[6-fluoro-3-(1-pyrrolidinylmethyl)-7-quinolinyl]-4′-methoxy[1,1′-biphenyl]-4-carboxamide] registered a melting point of 174 to 176 °C.

In the case of `CCc1ccc(-c2ccc(C(=O)Nc3ccc4cc(CN5CCCC5)cnc4c3C)c(F)c2)cc1` [Example 140, 4′-ethyl-3-fluoro-N-[8-methyl-3-(1-pyrrolidinylmethyl)-7-quinolinyl][1,1′-biphenyl]-4-carboxamide], the melting point was 178 to 179 °C.

For the compound `CCNC(=O)COC1CCN(Cc2cnc3cc(NC(=O)c4ccc(-c5ccc(F)cc5)cc4)ccc3c2)CC1` [Example 48, N-[3-({4-[2-(ethylamino)-2-oxoethoxy]-1-piperidinyl}methyl)-7-quinolinyl]-4′-fluoro[1,1′-biphenyl]-4-carboxamide], the melting point lay within 228 to 230 °C.

As to `O=C(Nc1ccc2cc(CN3CCCCCC3)cnc2c1)c1ccc(-c2ccc(Cl)cc2)cc1` [Example 27, N-[3-(1-azepanylmethyl)-7-quinolinyl]-4′-chloro[1,1′-biphenyl]-4-carboxamide], the melting point was found to be 204 °C.

With `Cc1c(NC(=O)c2ccc(-c3ccc(F)cc3)cc2)ccc2cc(CN3CCC(CCCC(=O)N(C)C)CC3)cnc12` [Example 208, N-[3-({4-[4-(dimethylamino)-4-oxobutyl]-1-piperidinyl}methyl)-8-methyl-7-quinolinyl]-4′-fluoro[1,1′-biphenyl]-4-carboxamide], the melting point fell in the range of 202 to 204 °C.

With `Cc1cc2cc(CN(C)C)cnc2cc1NC(=O)c1ccc(-c2ccc(F)cc2)cc1` [Example 248, N-{3-[(dimethylamino)methyl]-6-methyl-7-quinolinyl}-4′-fluoro[1,1′-biphenyl]-4-carboxamide], the melting point is 183 to 186 °C.

`Cc1cc2cc(CN3CCC(CCC(=O)N(C)C)CC3)cnc2cc1NC(=O)c1ccc(-c2ccc(F)cc2)cc1` [Example 256, N-[3-({4-[3-(dimethylamino)-3-oxopropyl]-1-piperidinyl}methyl)-6-methyl-7-quinolinyl]-4′-fluoro[1,1′-biphenyl]-4-carboxamide] showed a melting point of 193 to 196 °C.

`Cc1ccc(-c2ccc(C(=O)Nc3ccc4cc(CN5CCCC5)cnc4c3)cn2)cc1` [Example 10, 6-(4-methylphenyl)-N-[3-(1-pyrrolidinylmethyl)-7-quinolinyl]nicotinamide] displayed a melting point of 226 to 228 °C.

In turn, `O=C(Nc1cc2ncc(CN3CCCC3)cc2cc1Cl)c1ccc(-c2ccc(Cl)s2)cc1` [Example 69, N-[6-chloro-3-(1-pyrrolidinylmethyl)-7-quinolinyl]-4-(5-chlorothien-2-yl)benzamide] showed a melting point of 185 °C.

Compound `Cc1cc2cc(CN3CCCC3)cnc2cc1NC(=O)c1ccc(-c2ccc(F)cc2F)cc1` [Example 214, 2′,4′-difluoro-N-[6-methyl-3-(1-pyrrolidinylmethyl)-7-quinolinyl][1,1′-biphenyl]-4-carboxamide] displayed a melting point of 158 to 160 °C.

Consider `Cc1c(NC(=O)c2ccc(-c3ccccc3Cl)cc2)ccc2cc(CN3CCCC3)cnc12` (hydrate or solvate) [Example 108, 2′-chloro-N-[8-methyl-3-(1-pyrrolidinylmethyl)-7-quinolinyl][1,1′-biphenyl]-4-carboxamide], for which the melting point lay in the range of 128 to 129 °C.

In turn, `CC(=O)NC1CCN(Cc2cnc3cc(NC(=O)c4ccc(-c5ccc(F)cc5)cc4)ccc3c2)C1` (stereo not drawn) [Example 43, N-(3-{[3-(acetylamino)-1-pyrrolidinyl]methyl}-7-quinolinyl)-4′-fluoro[1,1′-biphenyl]-4-carboxamide] returned a melting point of 250 to 253 °C.

`COc1ccc(COc2ccc(C(=O)Nc3ccc4cc(CN5CCCC5)cnc4c3C)cc2)cc1` [Example 126, 4-[(4-methoxybenzyl)oxy]-N-[8-methyl-3-(1-pyrrolidinylmethyl)-7-quinolinyl]benzamide]: the melting point was 192 to 193 °C.

The compound `Cc1ccc(-c2ccc(C(=O)Nc3ccc4cc(CN5CCCCCC5)cnc4c3)cc2)cc1` [Example 28, N-[3-(1-azepanylmethyl)-7-quinolinyl]-4′-methyl[1,1′-biphenyl]-4-carboxamide] registered a melting point of 209 °C.

`COc1ccc(-c2ccc(C(=O)Nc3ccc4cc(CN5CCCCCC5)cnc4c3C)cc2F)cc1` (hydrate or solvate) [Example 190, N-[3-(1-azepanylmethyl)-8-methyl-7-quinolinyl]-2-fluoro-4′-methoxy[1,1′-biphenyl]-4-carboxamide] returned a melting point of 160 to 161 °C.

The compound `COc1ccc(-c2ccc(C(=O)Nc3ccc4cc(CN5CCCC5)cnc4c3)c(F)c2)cc1` [Example 87, 3-fluoro-4′-methoxy-N-[3-(1-pyrrolidinylmethyl)-7-quinolinyl][1,1′-biphenyl]-4-carboxamide] returned a melting point of 174 °C.

With `Cc1cc(C(=O)Nc2ccc3cc(CN4CCCC4)cnc3c2C)ccc1-c1ccc(F)cc1` [Example 160, 4′-fluoro-2-methyl-N-[8-methyl-3-(1-pyrrolidinylmethyl)-7-quinolinyl][1,1′-biphenyl]-4-carboxamide], the melting point lay within 200 to 202 °C.

In the case of `O=C(Nc1cc2ncc(CN3CCCC3)cc2cc1F)c1ccc(-c2ccc(OC(F)(F)F)cc2)cc1` [Example 56, N-[6-fluoro-3-(1-pyrrolidinylmethyl)-7-quinolinyl]-4′-(trifluoromethoxy)[1,1′-biphenyl]-4-carboxamide], the melting point lay within 184 to 187 °C.

With `CNC(=O)C1CCN(Cc2cnc3cc(NC(=O)c4ccc(-c5ccc(F)cc5)cc4)c(C)cc3c2)CC1` [Example 275, 1-[(7-{[(4′-fluoro-1,1′-biphenyl-4-yl)carbonyl]amino}-6-methyl-3-quinolinyl)methyl]-N-methylpiperidine-4-carboxamide], the melting point was 257 °C.

With `CN1CCc2nc3cc(NC(=O)c4ccc(-c5ccc(Cl)cc5)cc4F)ccc3cc2C1` [Example 328, 4′-chloro-3-fluoro-N-(2-methyl-1,2,3,4-tetrahydrobenzo[b][1,6]naphthyridin-7-yl)[1,1′-biphenyl]-4-carboxamide], the melting point is > 220 °C (dec.).

Compound `Cc1cc2cc(CN3CCCCCC3)cnc2cc1NC(=O)c1ccc(-c2cc3ccccc3o2)cc1` [Example 240, N-[3-(1-azepanylmethyl)-6-methyl-7-quinolinyl]-4-(1-benzofuran-2-yl)benzamide] gave a melting point of 207 °C.

As for `Cc1cc2cc(CN3CCCC3)cnc2cc1NC(=O)c1ccc(-c2ccccc2)c(F)c1` [Example 232, 2-fluoro-N-[6-methyl-3-(1-pyrrolidinylmethyl)-7-quinolinyl][1,1′-biphenyl]-4-carboxamide], the melting point lay in the range of 167 to 170 °C.

Turning to `CCNC(=O)CCCC1CCN(Cc2cnc3cc(NC(=O)c4ccc(-c5ccc(F)cc5)cc4)ccc3c2)CC1` [Example 47, N-[3-({4-[4-(ethylamino)-4-oxobutyl]-1-piperidinyl}methyl)-7-quinolinyl]-4′-fluoro[1,1′-biphenyl]-4-carboxamide], the melting point fell in the range of 209 to 213 °C.
